Measured values: patent USRE47350E1, “Pharmaceutical formulations containing dopamine receptor ligands” (Richter Gedeon Nyrt., priority 2008, dated 2019)
Read-outs that look alike come from different tables or passages of the source. Values belong to the molecule of their own block, whether it stands above or below them.

Experiments:
[1] = Double-blind placebo controlled single dose pharmacokinetic study of cariprazine capsules in healthy male volunteers (Example 4); type: in vivo, human; conditions: for Cmax / Tmax / half-life / AUC(0-t): male, human, plasma, oral; for AUC(0-t): read-out: AUC0-168
Protocol: The pharmacokinetic parameters described herein include area under the plasma concentration-time curve (AUC0-t and AUC0-∞), maximum plasma concentration (Cmax), time of maximum plasma concentration (Tmax) and terminal elimination half-life (T1/2). The time of maximum concentration, Tmax, is determined as the time corresponding to Cmax. Area under the plasma concentration-time curve up to the time corresponding to the last measurable concentration (AUC0-t) is calculated by numerical integration using the linear trapezoidal rule as follows: The terminal half-life (T1/2) is calculated using the following equation: The area under the plasma concentration-time curve from time zero to infinity is calculated according to the following equation: A double-blind, placebo controlled single dose study of the pharmacokinetic parameters of cariprazine (capsules) in healthy male volunteers was conducted. [table] The composition of the capsules is given below in Table 31. The mean pharmacokinetic parameters observed after administration of a single dose of 0.5 to 2.5 mg cariprazine are shown below in Table 32.

[2] = Hydrolytic degradation when formulated with commonly used excipients (general statements); type: physicochemical
Description: The formation of a degradation product such as De-BOC in a pharmaceutical formulation is detrimental to activity. Moreover, if the amount of degradation product exceeds FDA guidelines, additional safety and toxicology testing must be undertaken. Thus, it is important that stable and bioavailable formulations containing, for example, cariprazine and its salts, be developed, in which the amount of degradation product present falls within accepted FDA guidelines.
The preparation of stable and bioavailable dosage forms containing compounds of formula (I) is; however, not straightforward.

[3] = Multiple dose study in healthy male volunteers (Example 6); type: in vivo; conditions: human, plasma, fasted; for AUC: read-out: AUC0-τ
Protocol: Thirty-two healthy male subjects (mean age=24.9 years) were randomized into 4 groups (I-IV). In each group, 2 subjects received placebo and 6 subjects received one of the following treatments: • (I) 7 doses of 0.5 mg cariprazine administered every other day; • (II) 14 doses of 0.5 mg cariprazine every day; • (III) 2 doses of 0.5 mg cariprazine followed by 12 doses of 1.0 mg cariprazine every day; and • (IV) 21 doses of 1.0 mg cariprazine every day. Plasma samples were analyzed for cariprazine by a validated LC-MS/MS assay (Internal Standards: deuterated compounds; Sample preparation: Liquid-liquid extraction after alkalization; Sample Volume: 1 mL; Calibration Range: 0.05-25 ng/mL; Inonization: +ESI with MRM mode). The design of the study is shown below in Table 35. [table]

[4] = Linear calculated pharmacokinetic parameters (Table 33); type: in vivo; conditions: human, plasma, po; for AUC(0-t): read-out: Mean AUC0-168
Protocol: Linear calculated pharmacokinetic parameters (based on the 2.0 mg data (Table 35, 80% of AUClast, Treatment I) for dosages greater than 2.0 mg and on the 0.5 mg data for dosages lower than 0.5 mg (Table 33) are shown in Table 33.

[5] = Single-center, randomized, open-label, parallel-group single-dose study, 2-mg tablet fasted/fed (Example 5); type: in vivo; conditions: both sexes, human, plasma, po, mean, single oral 2-mg tablet; for half-life: read-out: T½ (converted)
Protocol: The objectives of this study were (i) to assess the effect of food on the oral bioavailability of cariprazine (2-mg tablet), (ii) to assess the effect of gender on the oral bioavailability of cariprazine after a single oral dose (2-mg tablet), and (iii) to evaluate the pharmacokinetics of cariprazine and its metabolites after an oral dose (2-mg tablet). This clinical study was conducted as a single-center, randomized, open-label, parallel-group single-dose study. A total of 42 healthy male and female patients aged 18-45 years were selected, with an approximate male-to-female ratio of 1:1. Dosing occurred in two treatment sessions (Treatment 1 and Treatment 2) separated by 5 to 7 days. The subjects were randomized with ˜1:1 male-female ratio to receive one of the following two treatments: • Treatment 1: • Single oral dose of one 2-mg cariprazine tablet under fasted conditions (12 female, 11 male subjects) • Treatment 2: • Single oral dose of one 2-mg cariprazine tablet under fed conditions (10 female, 9 male subjects) Subjects were given the study drug with 240 mL of water in the clinic under fed/fasted conditions at 0800 hours on Day 1. Subjects taking Treatment 1 underwent a 10-hour overnight fast before dosing on Day 1 and continued fasting for an additional 4 hours postdose. Subjects taking Treatment 2 underwent a 10-hour overnight fast before eating a US Food and Drug Administration standardized high-fat breakfast at 0730 hours on Dosing Day 1. This study was 30 days in duration (Day −1 through the last pharmacokinetic (PK) blood sample collection on Day 29). Blood sampling was performed at the following times to determine cariprazine plasma concentrations: 0.0 (predose), 0.5, 1, 2, 3, 4, 6, 8, 12, 24, 36, 48, 72, 96, 168, 336, 504 and 672 hours postdose.

[6] = 0.5 mg, Group I: 7 doses of 0.5 mg every other day
[7] = 0.5 mg, Group II: 14 doses of 0.5 mg every day
[8] = 1 mg, Group IV: 21 doses of 1.0 mg every day
[9] = Group III: 2 doses of 0.5 mg followed by 12 doses of 1.0 mg every day
[10] = mean, single dose 0.5 mg capsules, fasted, Group III Period 1
[11] = mean, single dose 1 mg capsules, fasted, Group I Period 1
[12] = mean, single dose 1.5 mg capsules, fasted, Group II Period 2
[13] = mean, single dose 2 mg capsules, fasted, Group I Period 2
[14] = mean, single dose 2.5 mg capsules, fasted, Group II Period 1

dose proportionality of exposure relative to mean AUC ([1]; single-dose range of 0.5 mg to 2.5 mg): approximate dose proportionality
SMILES: CN(C)C(=O)N[C@H]1CC[C@H](CCN2CCN(c3cccc(Cl)c3Cl)CC2)CC1.Cl [cariprazine hydrochloride, trans-1{4-[2-[4-(2,3-dichlorophenyl)-piperazin-1-yl]-ethyl]-cyclohexyl}-3,3-dimethyl-urea hydrochloride]
stability toward hydrolytic degradation product formation [2]: undergoes hydrolytic cleavage of the amide bond

Cmax [3, 6]: 1.03 ng/mL
AUC [3, 6]: 32.9 ng·h/mL
Tmax ([3]; 0.5 mg, Group I: 7 doses of 0.5 mg every other day, read-out: tmax): 4 h
Cmax [3, 7]: 1.42 ng/mL
AUC [3, 7]: 25 ng·h/mL
Tmax ([3]; 0.5 mg, Group II: 14 doses of 0.5 mg every day, read-out: tmax): 3.5 h
Cmax [3, 8]: 3.9 ng/mL
AUC [3, 8]: 56.8 ng·h/mL
Tmax ([3]; 1 mg, Group IV: 21 doses of 1.0 mg every day, read-out: tmax (range only printed)): 2 to 3 h
Cmax [3, 9]: 3.19 ng/mL
AUC [3, 9]: 53.6 ng·h/mL
Tmax ([3]; Group III: 2 doses of 0.5 mg followed by 12 doses of 1.0 mg every day, read-out: tmax): 4 h
Cmax ([4]; dose 0.1 mg): 0.03 ng/mL
AUC(0-t) ([4]; dose 0.1 mg): 2.82 ng·h/mL
Cmax ([4]; dose 0.25 mg): 0.09 ng/mL
AUC(0-t) ([4]; dose 0.25 mg): 1.05 ng·h/mL
Cmax ([4]; dose 3 mg): 3.8 ng/mL
AUC(0-t) ([4]; dose 3 mg): 96.8 ng·h/mL
Cmax ([4]; dose 4.5 mg): 5.7 ng/mL
AUC(0-t) ([4]; dose 4.5 mg): 145 ng·h/mL
Cmax ([4]; dose 5 mg): 6.33 ng/mL
AUC(0-t) ([4]; dose 5 mg): 161 ng·h/mL
Cmax ([4]; dose 6 mg): 7.6 ng/mL
AUC(0-t) ([4]; dose 6 mg): 194 ng·h/mL
Cmax ([4]; dose 7.5 mg): 9.5 ng/mL
AUC(0-t) ([4]; dose 7.5 mg): 242 ng·h/mL
Cmax ([4]; dose 9 mg): 11.4 ng/mL
AUC(0-t) ([4]; dose 9 mg): 290 ng·h/mL
Cmax ([4]; dose 12.5 mg): 15.8 ng/mL
AUC(0-t) ([4]; dose 12.5 mg): 404 ng·h/mL
Cmax ([4]; dose 15 mg): 19 ng/mL
AUC(0-t) ([4]; dose 15 mg): 484 ng·h/mL
Cmax [1, 10]: 0.14 ng/mL
Tmax [1, 10]: 6 h
half-life [1, 10]: 217 h
AUC(0-t) [1, 10]: 14.1 ng·h/mL
Cmax [1, 11]: 0.76 ng/mL
Tmax [1, 11]: 3 h
half-life [1, 11]: 185 h
AUC(0-t) [1, 11]: 35.4 ng·h/mL
Cmax [1, 12]: 1.19 ng/mL
Tmax [1, 12]: 3 h
half-life [1, 12]: 130 h
AUC(0-t) [1, 12]: 46.7 ng·h/mL
Cmax [1, 13]: 2.53 ng/mL
Tmax [1, 13]: 3 h
half-life [1, 13]: 130 h
AUC(0-t) [1, 13]: 95.3 ng·h/mL
Cmax [1, 14]: 2.5 ng/mL
Tmax [1, 14]: 4 h
half-life [1, 14]: 138 h
AUC(0-t) [1, 14]: 97.5 ng·h/mL
Tmax ([1]; single dose 0.5 to 2.5 mg): 3 to 6 h
AUC(0-inf) ([5]; Fed): 97 ng·h/mL
AUC(0-t) ([5]; Fed): 89.2 ng·h/mL
Cmax ([5]; Fed): 1.72 ng/mL
Tmax ([5]; Fed): 9.21 h
half-life ([5]; Fed): 198 h
AUC(0-inf) ([5]; Treatment 1 (Fasted)): 89.9 ng·h/mL
AUC(0-t) ([5]; Treatment 1 (Fasted)): 80.7 ng·h/mL
Cmax ([5]; Treatment 1 (Fasted)): 1.99 ng/mL
Tmax ([5]; Treatment 1 (Fasted)): 4.91 h
half-life ([5]; Treatment 1 (Fasted)): 203 h
SMILES: CN(C)C(=O)N[C@H]1CC[C@H](CCN2CCN(c3cccc(Cl)c3Cl)CC2)CC1 [cariprazine, trans-1{4-[2-[4-(2,3-dichlorophenyl)-piperazin-1-yl]-ethyl]-cyclohexyl}-3,3-dimethyl-urea]
